Experimental data from ChEMBL document CHEMBL1201862, “PubChem BioAssay data set” (2004).
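Briefly, cells in 96-well plates were exposed to five compound concentrations for 48 h, and endpoints were estimated by linear interpolation. GI50 = concentration required for 50% inhibition of growth.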 Active and inactive are the calls of the source. No stated cut-off is given here; in the data, active = GI50 up to about 1.1 µM and inactive = higher.

Assays:
Test in all cases: inhibition of tumour cell growth, NCI panel, 48 h
IGROV-1 = test system: IGROV-1
SK-MEL-28 = test system: SK-MEL-28
U-251 = test system: U-251
HOP-92 = test system: HOP-92
OVCAR-3 = test system: OVCAR-3
NCI-H460 = test system: NCI-H460
MCF7 = test system: MCF7
MDA-MB-231 = test system: MDA-MB-231
UACC-62 = test system: UACC-62
MDA-MB-435 = test system: MDA-MB-435
ACHN = test system: ACHN
RPMI-8226 = test system: RPMI-8226
PC-3 = test system: PC-3
HOP-62 = test system: HOP-62
RXF 393 = test system: RXF 393
CAKI-1 = test system: CAKI-1
OVCAR-4 = test system: OVCAR-4
HCT-116 = test system: HCT-116
SF-539 = test system: SF-539
SF-268 = test system: SF-268

Row | SMILES | GI50 (IGROV-1) | GI50 (SK-MEL-28) | GI50 (U-251) | GI50 (HOP-92) | GI50 (OVCAR-3) | GI50 (NCI-H460) | GI50 (MCF7) | GI50 (MDA-MB-231) | GI50 (UACC-62) | GI50 (MDA-MB-435) | GI50 (ACHN) | GI50 (RPMI-8226) | GI50 (PC-3) | GI50 (HOP-62) | GI50 (RXF 393) | GI50 (CAKI-1) | GI50 (OVCAR-4) | GI50 (HCT-116) | GI50 (SF-539) | GI50 (SF-268)
1 | O=C(O)c1ccc(NCc2nc3cc4ccccc4cc3[nH]2)cc1 | > 100 µM (inactive) | 5.21 µM (inactive) | > 100 µM (inactive) | > 100 µM (inactive) | > 100 µM (inactive) | > 100 µM (inactive) | 2.81 µM (inactive) | > 100 µM (inactive) | > 100 µM (inactive) | > 100 µM (inactive) | > 100 µM (inactive) | > 100 µM (inactive) | > 100 µM (inactive) | > 100 µM (inactive) | > 100 µM (inactive) | > 100 µM (inactive) | > 90.4 µM (inactive) | > 100 µM (inactive) | > 100 µM (inactive) | > 100 µM (inactive)
2 | O=C(O)/C=C\C(=O)Nc1ccc2c(c1)C(=O)c1cc(F)ccc1-2 | > 100 µM (inactive) | > 100 µM (inactive) | 99.8 µM (inactive) | > 100 µM (inactive) | > 100 µM (inactive) | > 100 µM (inactive) | > 100 µM (inactive) | > 100 µM (inactive) | > 100 µM (inactive) | > 100 µM (inactive) | > 100 µM (inactive) | > 100 µM (inactive) | > 100 µM (inactive) | > 100 µM (inactive) | > 100 µM (inactive) | > 100 µM (inactive) | > 100 µM (inactive) | > 100 µM (inactive) | > 100 µM (inactive) | > 100 µM (inactive)
3 | CN(C)Cc1cc(C(C)(C)C)ccc1-c1ccc(C(C)(C)C)cc1CN(C)C | > 100 µM (inactive) | 41.1 µM (inactive) | 77.8 µM (inactive) | > 100 µM (inactive) | 43.3 µM (inactive) | 96.8 µM (inactive) | 66.7 µM (inactive) | > 100 µM (inactive) | > 100 µM (inactive) | 84.3 µM (inactive) | > 100 µM (inactive) | 39.9 µM (inactive) | 43.7 µM (inactive) | > 100 µM (inactive) | > 100 µM (inactive) | > 100 µM (inactive) | > 100 µM (inactive) | > 100 µM (inactive) | > 100 µM (inactive) | > 100 µM (inactive)
4 | COc1cc(C(=O)NC2CCc3cc(OC)c(OC)c(OC)c3-c3ccc(OC)c(=O)cc32)cc(OC)c1OC (stereo not given) | 0.0891 µM (active) | 0.192 µM (active) | 0.0555 µM (active) | 0.0592 µM (active) | 0.0372 µM (active) | 0.143 µM (active) | < 0.0176 µM (active) | 0.0306 µM (active) | 0.0711 µM (active) | 0.0292 µM (active) | 2.65 µM (inactive) | 0.0279 µM (active) | 0.0807 µM (active) | 0.471 µM (active) | 0.466 µM (active) | 1.15 µM (inactive) | 15.8 µM (inactive) | 0.043 µM (active) | 0.0228 µM (active) | 0.0828 µM (active)
5 | CC(=O)OC1=CC(n2cc(F)c(=O)[nH]c2=O)OC(C)C1=O (stereo not given) | 30.5 µM (inactive) | 17.7 µM (inactive) | > 85.7 µM (inactive) | > 33.2 µM (inactive) | 25.3 µM (inactive) | 4.59 µM (inactive) | 4.28 µM (inactive) | > 88.7 µM (inactive) | 24.9 µM (inactive) | 11.4 µM (inactive) | 18.4 µM (inactive) | 26.5 µM (inactive) | 53 µM (inactive) | 23.7 µM (inactive) | 55.3 µM (inactive) | > 52.2 µM (inactive) | > 82.2 µM (inactive) | 10.8 µM (inactive) | 3.01 µM (inactive) | 81.5 µM (inactive)
6 | COC(=O)c1sc2ncc3c(c2c1N)CCCCCC3 | > 100 µM (inactive) | > 100 µM (inactive) | > 100 µM (inactive) | > 100 µM (inactive) | > 100 µM (inactive) | > 100 µM (inactive) | > 100 µM (inactive) | > 100 µM (inactive) | > 100 µM (inactive) | > 100 µM (inactive) | > 100 µM (inactive) | > 100 µM (inactive) | > 100 µM (inactive) | 53.6 µM (inactive) | > 100 µM (inactive) | > 100 µM (inactive) | > 100 µM (inactive) | > 100 µM (inactive) | > 100 µM (inactive) | > 100 µM (inactive)
7 | CN1CCc2cc3c(c4c2C1C(O)c1ccccc1-4)OCO3 (stereo not given) | 6.61 µM (inactive) | 20.2 µM (inactive) | 6.07 µM (inactive) | 2.16 µM (inactive) | 14.4 µM (inactive) | 3.33 µM (inactive) | 4.31 µM (inactive) | 6.05 µM (inactive) | 8.22 µM (inactive) | 6.12 µM (inactive) | 6.05 µM (inactive) | 7.01 µM (inactive) | 5.37 µM (inactive) | 4.67 µM (inactive) | 2.52 µM (inactive) | 3.75 µM (inactive) | 6.04 µM (inactive) | 3.68 µM (inactive) | 4.72 µM (inactive) | 6.3 µM (inactive)
8 | CCOC(=O)c1sc2c(c1OC(=O)c1cccs1)c(=O)n(-c1ccccc1)c(=S)n2-c1ccccc1 | 12.2 µM (inactive) | 11.8 µM (inactive) | 12.2 µM (inactive) | 24.5 µM (inactive) | 24.7 µM (inactive) | 3.63 µM (inactive) | 14.9 µM (inactive) | 14.9 µM (inactive) | 15.3 µM (inactive) | 11.5 µM (inactive) | 15.8 µM (inactive) | 7.55 µM (inactive) | 12 µM (inactive) | 21.1 µM (inactive) | 24.3 µM (inactive) | 33.1 µM (inactive) | 11.7 µM (inactive) | 5.3 µM (inactive) | 16.7 µM (inactive) | 29.6 µM (inactive)
9 | COc1ccc(/C=C(/C)[N+](=O)[O-])cc1 | 2.13 µM (inactive) | 2.65 µM (inactive) | 1.62 µM (inactive) | 2 µM (inactive) | 1.82 µM (inactive) | 2.18 µM (inactive) | 1.22 µM (inactive) | 3.24 µM (inactive) | 1.68 µM (inactive) | 1.95 µM (inactive) | 1.99 µM (inactive) | 0.394 µM (active) | 2.16 µM (inactive) | 1.86 µM (inactive) | 1.69 µM (inactive) | 2.32 µM (inactive) | 3.09 µM (inactive) | 1.75 µM (inactive) | 1.72 µM (inactive) | 3.15 µM (inactive)
10 | CC1=NN(C(=O)CC(=O)Nc2ccccc2C)C(=O)C1/N=N\c1ccc(S(=O)(=O)c2ccc(/N=N/C3C(=O)N(C(=O)CC(=O)Nc4ccccc4C)N=C3C)cc2)cc1 (stereo not given) | 68.9 µM (inactive) | > 100 µM (inactive) | 67.9 µM (inactive) | > 100 µM (inactive) | > 100 µM (inactive) | > 100 µM (inactive) | > 100 µM (inactive) | > 100 µM (inactive) | > 100 µM (inactive) | > 100 µM (inactive) | > 100 µM (inactive) | > 100 µM (inactive) | > 100 µM (inactive) | > 100 µM (inactive) | > 100 µM (inactive) | > 100 µM (inactive) | > 100 µM (inactive) | > 100 µM (inactive) | > 100 µM (inactive) | > 100 µM (inactive)
11 | CN(C)CCCN1CCC2(CCC(C(C)(C)C)CC2)CC1 | 4.01 µM (inactive) | 1.77 µM (inactive) | 1.76 µM (inactive) | 3.18 µM (inactive) | 3.1 µM (inactive) | 0.8 µM (active) | 1.65 µM (inactive) | 1.91 µM (inactive) | 1.88 µM (inactive) | 0.47 µM (active) | 7.05 µM (inactive) | 1.25 µM (inactive) | 2.52 µM (inactive) | 2.15 µM (inactive) | 1.6 µM (inactive) | 2.72 µM (inactive) | 6.31 µM (inactive) | 1.56 µM (inactive) | 1.88 µM (inactive) | 2.32 µM (inactive)
12 | O=C(O)CCC(O)=C1S(=O)(=O)OCCOS1(=O)=O | > 100 µM (inactive) | > 100 µM (inactive) | > 100 µM (inactive) | > 100 µM (inactive) | > 100 µM (inactive) | > 100 µM (inactive) | > 100 µM (inactive) | > 100 µM (inactive) | > 100 µM (inactive) | > 100 µM (inactive) | > 100 µM (inactive) | > 100 µM (inactive) | > 100 µM (inactive) | > 100 µM (inactive) | > 100 µM (inactive) | > 100 µM (inactive) | > 100 µM (inactive) | > 100 µM (inactive) | > 100 µM (inactive) | > 100 µM (inactive)
13 | Cc1cc(-c2nc3cccc(F)c3s2)ccc1N | 1.93 µM (inactive) | > 100 µM (inactive) | > 68.2 µM (inactive) | > 50.8 µM (inactive) | > 66.5 µM (inactive) | > 20.4 µM (inactive) | 0.0132 µM (active) | 98.9 µM (inactive) | > 96.4 µM (inactive) | > 61.4 µM (inactive) | > 74.1 µM (inactive) | > 52.6 µM (inactive) | > 65.8 µM (inactive) | > 100 µM (inactive) | > 71 µM (inactive) | > 59.6 µM (inactive) | > 27.2 µM (inactive) | > 52.7 µM (inactive) | > 100 µM (inactive) | > 35 µM (inactive)
14 | CC(C)(C)c1ccc(OC(=O)Nc2ccc(O)c(C(=O)O)c2)cc1 | > 100 µM (inactive) | > 100 µM (inactive) | > 100 µM (inactive) | > 100 µM (inactive) | > 100 µM (inactive) | > 100 µM (inactive) | > 100 µM (inactive) | > 100 µM (inactive) | > 100 µM (inactive) | > 100 µM (inactive) | > 100 µM (inactive) | > 100 µM (inactive) | > 100 µM (inactive) | > 100 µM (inactive) | > 100 µM (inactive) | > 100 µM (inactive) | > 100 µM (inactive) | > 100 µM (inactive) | > 100 µM (inactive) | > 100 µM (inactive)
